Data published in US11254686B1 (Corvus Pharmaceuticals, Inc., priority 2017, dated 2022).

How the values were obtained:
adenosine A2B receptor = adenosine A2B receptor (Homo sapiens (Human), UniProt P29275); experiment: Adenosine receptor activity assay (Table 1), A2B activity; format: biochemical; details: for IC50: read-out: Ave A2B cAMP IC50
adenosine A2A receptor = adenosine A2A receptor (Homo sapiens (Human), UniProt P29274); experiment: Adenosine receptor activity assay (Table 1), A2A activity; format: biochemical; details: read-out: Ave A2A cAMP IC50
[1] = A2A activity to the A2B activity, A2A/A2B
[2] = A2A activity to A2B activity (A2A/A2B)

Sequence of adenosine A2A receptor (P29274 whole entry): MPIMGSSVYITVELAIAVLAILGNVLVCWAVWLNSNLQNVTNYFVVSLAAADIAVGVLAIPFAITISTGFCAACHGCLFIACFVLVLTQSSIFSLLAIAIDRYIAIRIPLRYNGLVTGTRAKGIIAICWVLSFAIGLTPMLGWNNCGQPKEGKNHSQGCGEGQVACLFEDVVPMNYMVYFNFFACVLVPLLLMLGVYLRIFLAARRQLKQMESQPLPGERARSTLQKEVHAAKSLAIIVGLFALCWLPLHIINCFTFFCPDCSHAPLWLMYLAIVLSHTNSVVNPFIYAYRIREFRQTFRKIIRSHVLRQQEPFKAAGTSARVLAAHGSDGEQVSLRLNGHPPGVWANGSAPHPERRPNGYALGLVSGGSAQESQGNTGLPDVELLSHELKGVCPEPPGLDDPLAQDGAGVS
Sequence of adenosine A2B receptor (P29275 whole entry): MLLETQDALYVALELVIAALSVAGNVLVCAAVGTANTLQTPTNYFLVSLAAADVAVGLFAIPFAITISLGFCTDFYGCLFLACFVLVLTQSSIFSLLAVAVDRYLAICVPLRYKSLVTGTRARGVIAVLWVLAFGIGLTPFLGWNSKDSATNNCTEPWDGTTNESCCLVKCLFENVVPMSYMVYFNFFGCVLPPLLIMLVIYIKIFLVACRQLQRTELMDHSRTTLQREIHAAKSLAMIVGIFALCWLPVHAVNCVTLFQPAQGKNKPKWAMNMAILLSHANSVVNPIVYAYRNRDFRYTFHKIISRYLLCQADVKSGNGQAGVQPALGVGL

Compound	Ratio (adenosine A2B receptor; [1])	IC50 (adenosine A2B receptor)	IC50 (adenosine A2A receptor)	Ratio (adenosine A2B receptor; [2])
COc1ccc(CNC(=O)c2nc(NCc3ccc(OC)nc3)nc3ccsc23)cn1 [Example Z12, N-((6-Methoxypyridin-3-yl)methyl)-2-(((6-methoxypyridin-3-yl)methyl)amino)thieno[3,2-d]pyrimidine-4-carboxamide]		> 500 nM	50 to 100 nM	0.15
C[C@H](Nc1nc(C(=O)NCCN2CCCC2)c2sccc2n1)c1ccccn1 [Example Z356, (S)-2-((1-(Pyridin-2-yl)ethyl)amino)-N-(2-(pyrrolidin-1-yl)ethyl)thieno[3,2-d]pyrimidine-4-carboxamide]		> 500 nM	> 500 nM	3.31
O=C(c1nc(NCc2cccc(F)c2)nc2ccsc12)N1CCN(CCCc2ccccc2)CC1 [Example Z80, (2-((3-Fluorobenzyl)amino)thieno[3,2-d]pyrimidin-4-yl)(4-(3-phenylpropyl)piperazin-1-yl)methanone]		> 500 nM	> 500 nM	1.00
C[C@H](Nc1nc(C(=O)N2CC[C@@H](S(C)(=O)=O)C2)c2sccc2n1)c1cccnc1 [Example Z262, ((R)-3-(Methylsulfonyl)pyrrolidin-1-yl)(2-(((S)-1-(pyridin-3-yl)ethyl)amino)thieno[3,2-d]pyrimidin-4-yl)methanone]		> 500 nM	> 500 nM	1.12
C[C@H](Nc1nc(C(=O)N2CCNC2)c2sccc2n1)c1cccnc1 [Example Z148, (S)-Imidazolidin-1-yl(2-((1-(pyridin-3-yl)ethyl)amino)thieno[3,2-d]pyrimidin-4-yl)methanone]		> 500 nM	> 500 nM	4.87
O=C(NCc1ccc(C(F)(F)F)nc1)c1nc(NCc2ccc(C(F)(F)F)nc2)nc2ccsc12 [Example Z72, N-((6-(Trifluoromethyl)pyridin-3-yl)methyl)-2-(((6-(trifluoromethyl)pyridin-3-yl)methyl)amino)thieno[3,2-d]pyrimidine-4-carboxamide]		> 500 nM	> 500 nM	1.00
COc1ccc(CNc2nc(C(=O)NC3CCC3)c3sccc3n2)cn1 [Example Z434, N-Cyclobutyl-2-(((6-methoxypyridin-3-yl)methyl)amino)thieno[3,2-d]pyrimidine-4-carboxamide]	0.08	> 500 nM	50 to 100 nM	
C[C@H](Nc1nc(C(=O)N2CC[C@@H](N)C2)c2sccc2n1)c1ccccn1 [Example Z364, ((R)-3-Aminopyrrolidin-1-yl)(2-(((S)-1-(pyridin-2-yl)ethyl)amino)thieno[3,2-d]pyrimidin-4-yl)methanone]		100 to 500 nM	> 500 nM	11.16
C[C@H](Nc1nc(C(=O)N2CC[C@H](N)C2)c2sccc2n1)c1ccccn1 [Example Z363, ((S)-3-Aminopyrrolidin-1-yl)(2-(((S)-1-(pyridin-2-yl)ethyl)amino)thieno[3,2-d]pyrimidin-4-yl)methanone]		100 to 500 nM	> 500 nM	23.53

Next, values leading:

Ratio (adenosine A2B receptor; [1])	IC50 (adenosine A2B receptor)	IC50 (adenosine A2A receptor)	Ratio (adenosine A2B receptor; [2])	Compound
57.93	50 to 100 nM	> 500 nM		Cc1cc2nc(N[C@@H](C)c3cncc(F)c3)nc(C(=O)NCC3CCNCC3)c2s1 [Example Z534, (S)-2-((1-(5-Fluoropyridin-3-yl)ethyl)amino)-6-methyl-N-(piperidin-4-ylmethyl)thieno[3,2-d]pyrimidine-4-carboxamide]
	10 to 50 nM	100 to 500 nM		C[C@H](Nc1nc(C(=O)N2CC(C)(O)C2)c2sccc2n1)c1ccccn1 [Example Z101, (S)-(3-Hydroxy-3-methylazetidin-1-yl)(2-((1-(pyridin-2-yl)ethyl)amino)thieno[3,2-d]pyrimidin-4-yl)methanone]
	100 to 500 nM	> 500 nM	3.11	CC(C)(C)OC(=O)N1CCN(C(=O)c2nc(NCc3cncc(F)c3)nc3ccsc23)C1 [Example Z135, tert-Butyl 3-(2-(((5-fluoropyridin-3-yl)methyl)amino)thieno[3,2-d]pyrimidine-4-carbonyl)imidazolidine-1-carboxylate]
	100 to 500 nM	> 500 nM	44.45	C[C@H](Nc1nc(C(=O)N2CC[C@@H](O)C2)c2sc(N)cc2n1)c1cccnc1 [Example Z220, (6-Amino-2-(((S)-1-(pyridin-3-yl)ethyl)amino)thieno[3,2-d]pyrimidin-4-yl)((R)-3-hydroxypyrrolidin-1-yl)methanone]
	10 to 50 nM	> 500 nM	40.62	C[C@H](Nc1nc(C(=O)N[C@H]2C[C@H](O)C2)c2sccc2n1)c1cncc(Cl)c1 [Example Z306, 2-(((S)-1-(5-Chloropyridin-3-yl)ethyl)amino)-N-((1r,3S)-3-hydroxycyclobutyl)thieno[3,2-d]pyrimidine-4-carboxamide]
	100 to 500 nM	> 500 nM	28.33	N[C@@H]1CCN(C(=O)c2nc(NCc3cncc(F)c3)nc3ccsc23)C1 [Example Z361, (R)-(3-Aminopyrrolidin-1-yl)(2-(((5-fluoropyridin-3-yl)methyl)amino)thieno[3,2-d]pyrimidin-4-yl)methanone]
	50 to 100 nM	100 to 500 nM	1.87	CC(C)(C)OC(=O)N[C@H]1CCN(C(=O)c2nc(NCc3cncc(F)c3)nc3ccsc23)C1 [Example Z245, tert-Butyl (S)-(1-(2-(((5-fluoropyridin-3-yl)methyl)amino)thieno[3,2-d]pyrimidine-4-carbonyl)pyrrolidin-3-yl)carbamate]
12.84	50 to 100 nM	> 500 nM		COC[C@H]1CCN1C(=O)c1nc(N[C@@H](C)c2cncc(F)c2)nc2ccsc12 [Example Z568, (2-(((S)-1-(5-Fluoropyridin-3-yl)ethyl)amino)thieno[3,2-d]pyrimidin-4-yl)((R)-2-(methoxymethyl)azetidin-1-yl)methanone]
0.82	100 to 500 nM	50 to 100 nM		C[C@H](Nc1nc(C(=O)NCCC2CCN(C(=O)OC(C)(C)C)C2)c2sccc2n1)c1ccccn1 (stereo partly drawn) [Example Z425, tert-Butyl 3-(2-(2-(((S)-1-(pyridin-2-yl)ethyl)amino)thieno[3,2-d]pyrimidine-4-carboxamido)ethyl)pyrrolidine-1-carboxylate]
	100 to 500 nM	> 500 nM	3.68	O=C(c1nc(NCc2cccnc2)nc2ccsc12)N1CC[C@@H](O)C1 [Example Z103, (R)-(3-Hydroxypyrrolidin-1-yl)(2-((pyridin-3-ylmethyl)amino)thieno[3,2-d]pyrimidin-4-yl)methanone]
	50 to 100 nM	> 500 nM	29.35	Nc1cc2nc(NCc3cccnc3)nc(C(=O)N3CCCC3)c2s1 [Example Z186, (6-Amino-2-((pyridin-3-ylmethyl)amino)thieno[3,2-d]pyrimidin-4-yl)(pyrrolidin-1-yl)methanone]
	10 to 50 nM	50 to 100 nM	2.19	C[C@H](Nc1nc(C(=O)NCCC2CCN(C(=O)OC(C)(C)C)C2)c2sccc2n1)c1cncc(F)c1 (stereo partly drawn) [Example Z365, tert-Butyl 3-(2-(2-(((S)-1-(5-fluoropyridin-3-yl)ethyl)amino)thieno[3,2-d]pyrimidine-4-carboxamido)ethyl)pyrrolidine-1-carboxylate]
